Data on twelve compounds can be found in patent US20090005375A1, “ACETYL COENZYME A CARBOXYLASE INHIBITORS” (priority 2007, published 2009).

Assay [1] has as its target T1, Human ACC1 (Homo sapiens, UniProt Q13085).
T1 construct: made in house; host or cells: SF-9 insect cells (baculovirus, pFAST-BacHTc)
Description: In vitro enzymatic ACC activity assay (malachite green), ACC1. The format is biochemical. As to conditions: recombinant His-tagged enzyme, absorbance at 620 nm. On the procedure: (§1) Provided in Example A is an in vitro enzymatic ACC activity assay for activity against ACC. The binding affinity of the test compound to ACC1 or ACC2 is determined by the changes in absorbance (at 620 nm); […]. It should be noted that a variety of other expression systems and hosts are also suitable for the expression of ACC, as would be readily appreciated by one of skill in the art.
Human ACC1 cDNA was amplified from human liver cDNA by polymerase chain reaction using primers; 5′[…]3′ (SEQ ID NO: 1) and 5′[…]3′ (SEQ ID NO: 2). The amplified DNA fragment was digested by restriction enzyme SalI and NotI, and cloned into pFAST-BacHTc (Invitrogen). This plasmid DNA was used for preparation of recombinant vaculovirus with BAC-TO-BAC Baculovirus Expression System (Invitrogen).
SF-9 cells were infected with the vaculovirus and cultured at 27° C. for 3 days. Harvested cells were homogenized in buffer A (25 mM HEPES (pH7.5), 130 mM NaCl, 1 mM EDTA, 25 mM sodium glycerophosphate, 1 mM sodium orthovanadate, 10% glycerol, complete protease inhibitor), and subjected to ultracentrifuge at 185700×g for 50 min at 4° C. ACC1 protein with 6×His-tag at the N-terminal was purified from the supernatant using Ni-NTA Super Flow Gel (QIAGEN). Eluted protein was dialysed against buffer B (50 mM HEPES (pH 7.5), 300 mM NaCl, 10 mM MgCl2, 10 mM tripotassium citrate, 2 mM dithiothreitol) and concentrated using Vivaspin20 ultrafiltration tube (Sartorius).
(§2) Malachite green solution was prepared by mixing 100 mL of solution A (0.12% malachite green in 5NH2SO4), 25 mL of solution B (7.5% ammonium molybdate) and 2 mL of solution C (11% TWEEN-20).
(§3) ACC1 was diluted to 8 μg/mL in reaction buffer (50 mM HEPES pH7.5, 10 mM MgCl2, 10 mM tripotassium citrate, 2 mM DTT, 0.75 mg/mL fatty acid free BSA) and 10 μL diluted enzyme solution was pored into each well of 384-well clear bottom plate. Test compound was diluted in the reaction buffer and 5 μL of the compound solution was added into each well, and the mixture was incubated at 30° C. for 60 minutes. Reaction was initiated by addition of 5 μL substrate solution (50 mM KHCO3, 200 μM ATP, 200 μM acetyl-CoA). After incubation at 30° C. for 20 minutes, reaction was terminated by addition of 5 μL malachite green solution and absorbance at 620 nm was measured.
(§4) Percent activity at each concentration of compound was calculated from the following equation: […]
(§5) Data were subjected to nonlinear regression analysis using GraphPad Prism Software (GraphPad Software Inc.) to obtain IC50 values.

Assay [2] deals with T2, Human ACC2 (Homo sapiens, UniProt O00763).
T2 construct: made in house; host or cells: SF-9 insect cells (baculovirus, pFAST-BacHTa)
T2 sequence (O00763 117-2458 limits assumed): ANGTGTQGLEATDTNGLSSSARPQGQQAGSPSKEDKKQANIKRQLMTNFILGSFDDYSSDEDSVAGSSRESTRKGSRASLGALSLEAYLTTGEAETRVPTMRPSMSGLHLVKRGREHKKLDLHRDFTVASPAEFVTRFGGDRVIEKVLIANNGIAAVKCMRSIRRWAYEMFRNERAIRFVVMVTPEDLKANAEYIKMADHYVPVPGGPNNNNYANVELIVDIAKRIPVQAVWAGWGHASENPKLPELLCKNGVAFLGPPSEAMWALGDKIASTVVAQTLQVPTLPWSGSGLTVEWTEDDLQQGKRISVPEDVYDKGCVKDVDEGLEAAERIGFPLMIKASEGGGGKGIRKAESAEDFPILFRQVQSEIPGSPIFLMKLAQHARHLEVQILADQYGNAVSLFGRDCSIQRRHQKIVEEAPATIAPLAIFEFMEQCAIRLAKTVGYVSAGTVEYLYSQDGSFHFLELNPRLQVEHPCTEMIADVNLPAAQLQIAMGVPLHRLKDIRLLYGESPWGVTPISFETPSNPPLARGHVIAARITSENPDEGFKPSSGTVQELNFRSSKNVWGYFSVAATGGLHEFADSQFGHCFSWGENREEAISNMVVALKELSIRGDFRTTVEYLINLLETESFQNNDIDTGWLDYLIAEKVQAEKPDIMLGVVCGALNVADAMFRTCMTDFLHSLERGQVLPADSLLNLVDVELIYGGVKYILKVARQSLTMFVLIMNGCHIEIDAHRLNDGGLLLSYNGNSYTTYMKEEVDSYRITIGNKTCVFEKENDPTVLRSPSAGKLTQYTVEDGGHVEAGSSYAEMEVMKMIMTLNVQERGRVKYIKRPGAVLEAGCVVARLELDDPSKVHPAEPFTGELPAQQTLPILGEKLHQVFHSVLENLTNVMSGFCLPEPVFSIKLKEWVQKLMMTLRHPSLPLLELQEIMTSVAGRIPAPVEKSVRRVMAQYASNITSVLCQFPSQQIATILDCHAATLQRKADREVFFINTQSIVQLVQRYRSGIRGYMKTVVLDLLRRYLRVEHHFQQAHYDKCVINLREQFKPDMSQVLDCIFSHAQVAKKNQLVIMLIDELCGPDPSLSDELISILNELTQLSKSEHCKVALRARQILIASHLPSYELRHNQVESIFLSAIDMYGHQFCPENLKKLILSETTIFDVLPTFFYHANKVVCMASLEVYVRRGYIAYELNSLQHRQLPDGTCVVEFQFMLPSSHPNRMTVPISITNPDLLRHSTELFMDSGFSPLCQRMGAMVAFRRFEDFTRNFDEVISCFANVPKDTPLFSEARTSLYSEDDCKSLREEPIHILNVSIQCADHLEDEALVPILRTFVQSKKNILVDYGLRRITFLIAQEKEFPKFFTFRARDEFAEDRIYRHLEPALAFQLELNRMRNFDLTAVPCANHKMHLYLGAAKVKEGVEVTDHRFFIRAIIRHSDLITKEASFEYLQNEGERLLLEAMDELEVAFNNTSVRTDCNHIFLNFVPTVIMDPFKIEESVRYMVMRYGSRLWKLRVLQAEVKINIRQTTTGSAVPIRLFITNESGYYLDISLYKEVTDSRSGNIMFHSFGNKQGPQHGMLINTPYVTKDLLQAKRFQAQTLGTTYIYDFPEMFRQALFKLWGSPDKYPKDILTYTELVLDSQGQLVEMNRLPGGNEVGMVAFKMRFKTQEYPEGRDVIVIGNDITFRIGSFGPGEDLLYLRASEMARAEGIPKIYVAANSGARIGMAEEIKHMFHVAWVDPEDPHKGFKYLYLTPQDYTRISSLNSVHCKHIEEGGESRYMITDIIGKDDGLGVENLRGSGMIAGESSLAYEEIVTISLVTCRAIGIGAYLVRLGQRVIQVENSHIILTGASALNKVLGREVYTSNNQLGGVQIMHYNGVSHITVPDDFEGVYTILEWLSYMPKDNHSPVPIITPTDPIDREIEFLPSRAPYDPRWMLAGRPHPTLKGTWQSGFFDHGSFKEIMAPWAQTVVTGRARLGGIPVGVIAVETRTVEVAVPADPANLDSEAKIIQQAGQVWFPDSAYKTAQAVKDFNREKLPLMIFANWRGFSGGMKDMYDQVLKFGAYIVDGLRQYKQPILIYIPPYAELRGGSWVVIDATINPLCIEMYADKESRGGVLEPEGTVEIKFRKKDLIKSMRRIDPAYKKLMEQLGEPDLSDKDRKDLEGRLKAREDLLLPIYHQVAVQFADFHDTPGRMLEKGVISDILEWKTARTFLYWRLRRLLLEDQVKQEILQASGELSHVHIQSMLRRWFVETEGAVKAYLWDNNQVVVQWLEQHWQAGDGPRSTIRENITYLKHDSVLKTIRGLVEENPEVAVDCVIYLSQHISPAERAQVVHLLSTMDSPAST
As to the kind of experiment: In vitro enzymatic ACC activity assay (malachite green), ACC2. Format: biochemical. As to conditions: recombinant His-tagged enzyme, absorbance at 620 nm. On the procedure:
as §1
Human ACC2 cDNA except coding region for mitochondria localization sequence was amplified from human skeletal muscle cDNA by polymerase chain reaction using primers; 5′[…]3′ (SEQ ID NO: 3) and 5′[…]3′ (SEQ ID NO: 4). The amplified DNA fragment was digested by SalI and AflII, and cloned into pFAST-BacHTa (Invitrogen). Preparation of recombinant vaculovirus, infection of the virus to SF-9 cells and purification of recombinant ACC2 protein with 6×His-tag at the N-terminal were performed in the same method as described above.
as §2, §3
ACC2 was diluted to 6.4 μg/mL in reaction buffer, and the activity was measured by the same method as described for ACC1.
as §4, §5

As to `CCNC(=O)Nc1sc2ccccc2c1C(=O)N1CCN(S(=O)(=O)c2ccc(OC)c(OC)c2)CC1` [Example 23, 1-(3-(4-(3,4-dimethoxyphenylsulfonyl)piperazine-1-carbonyl)benzo[b]thiophen-2-yl)-3-ethylurea], the IC50 in assay [1] and in assay [2] was less than 5 µM throughout.
In the case of `CCNC(=O)Nc1sc2ccccc2c1C(=O)N1CCN(S(=O)(=O)c2ccc(NC(C)=O)cc2)CC1` [Example 24, N-(4-(4-(2-(3-ethylureido)benzo[b]thiophene-3-carbonyl)piperazin-1-ylsulfonyl)phenyl)acetamide], the IC50 in assay [1] and in assay [2] was less than 5 µM in each case.
Regarding `CCNC(=O)Nc1sc2ccccc2c1C(=O)N1CCN(S(=O)(=O)CCC(=O)OCC)CC1` [Example 25, Ethyl 3-(4-(2-(3-ethylureido)benzo[b]thiophene-3-carbonyl)piperazin-1-ylsulfonyl)propanoate], the half-maximal inhibitory concentration (IC50) in assay [1] and in assay [2] was 5 to 50 µM each time.
As for `CCNC(=O)Nc1sc2ccccc2c1C(=O)N1CCN(S(=O)(=O)CC(C)C)CC1` [Example 26, ethyl-3-(3-(4-(isobutylsulfonyl)piperazine-1-carbonyl)benzo[b]thiophen-2-yl)urea], the 50% inhibitory concentration (IC50) in assay [1] and in assay [2] was 5 to 50 µM throughout.
For the compound `CCNC(=O)Nc1sc2ccccc2c1C(=O)N1CCN(S(=O)(=O)CCC(F)(F)F)CC1` [Example 27, ethyl-3-(3-(4-(3,3,3-trifluoropropylsulfonyl)piperazine-1-carbonyl)benzo[b]thiophen-2-yl)urea], the IC50 in assay [1] is greater than 50 µM; in assay [2] it was 5 to 50 µM.
Take `CCNC(=O)Nc1sc2ccccc2c1C(=O)N1CCN(S(C)(=O)=O)CC1` [Example 28, ethyl-3-(3-(4-(methylsulfonyl)piperazine-1-carbonyl)benzo[b]thiophen-2-yl)urea]: the 50% inhibitory concentration (IC50) in assay [1] and in assay [2] was greater than 50 µM throughout.
On to `CCNC(=O)Nc1sc2ccccc2c1C(=O)N1CCN(S(=O)(=O)c2ccc(S(C)(=O)=O)cc2)CC1` [Example 29, ethyl-3-(3-(4-(4-(methylsulfonyl)phenylsulfonyl)piperazine-1-carbonyl)benzo[b]thiophen-2-yl)urea], for which the IC50 in assay [1] is greater than 50 µM; in assay [2] it was 5 to 50 µM.
Regarding `CCNC(=O)Nc1sc2ccccc2c1C(=O)N1CCN(S(=O)(=O)c2ccc3c(c2)NC(=O)C3)CC1` [Example 30, ethyl-3-(3-(4-(2-oxoindolin-6-ylsulfonyl)piperazine-1-carbonyl)benzo[b]thiophen-2-yl)urea], the IC50 in assay [1] was 5 to 50 µM; in assay [2], less than 5 µM.
The matching figures for `CCNC(=O)Nc1sc2ccccc2c1C(=O)N1CCN(S(=O)(=O)c2ccc3[nH]c(=O)[nH]c3c2)CC1` [Example 31, ethyl-3-(3-(4-(2-oxo-2,3-dihydro-1H-benzo[d]imidazol-5-ylsulfonyl)piperazine-1-carbonyl)benzo[b]thiophen-2-yl)urea]: less than 5 µM and less than 5 µM.
The matching figures for `CCNC(=O)Nc1sc2ccccc2c1C(=O)N1CCN(S(=O)(=O)c2ccc3oc(=O)[nH]c3c2)CC1` [Example 32, ethyl-3-(3-(4-(2-oxo-2,3-dihydrobenzo[d]oxazol-5-ylsulfonyl)piperazine-1-carbonyl)benzo[b]thiophen-2-yl)urea]: greater than 50 µM and 5 to 50 µM.
Turning to `CCNC(=O)Nc1sc2ccccc2c1C(=O)N1CCN(S(=O)(=O)CCC(=O)N(CC)CC)CC1` [Example 34, N,N-diethyl-3-(4-(2-(3-ethylureido)benzo[b]thiophene-3-carbonyl)piperazin-1-ylsulfonyl)propanamide], the IC50 in assay [1] and in assay [2] was 5 to 50 µM each time.
Take `CCNC(=O)Nc1sc2ccccc2c1C(=O)N1CCN(S(=O)(=O)CCC(=O)N2CCCC2)CC1` [Example 35, ethyl-3-(3-(4-(3-oxo-3-(pyrrolidin-1-yl)propylsulfonyl)piperazine-1-carbonyl)benzo[b]thiophen-2-yl)urea]: the IC50 in assay [1] and in assay [2] was 5 to 50 µM throughout.

One may read the IC50 as the point on the concentration scale where inhibition reaches its midpoint.
